Source: patent US10842152B2, “Isothiazolo-based bicycles, processes for their preparation and their use as herbicides and/or plant growth regulators” (Bayer CropScience Aktiengesellschaft, priority 2017, dated 2020)

What was measured:
Format in all cases: in vivo
[1] = tested on: Amaranthus retroflexus; assay: Herbicidal effect pre-emergence; details: 320 g/ha, visual grading after ca. 3 weeks vs untreated controls
Text: (§1) Herbicidal activities of the compounds of the formulae (G1) or (G2) according to the invention were investigated against the following harmful plants: • ALOMY=Alopecurus myosuroides • ECHCG=Echinochloa crus-galli • SETVI=Setaria viridis • ABUTH=Abutilon theophrasti • AMARE=Amaranthus retroflexus • PHBPU=Pharbitis purpurea • POLCO=Polygonum convolvulus (=Fallopia convolvulus) • STEME=Stellaria media • VIOTR=Viola tricolor
(§2) Seeds of mono- and dicotyledonous weed plants and crop plants are sown in wood-fiber pots in sandy loam and covered with soil. The compounds according to the invention, formulated in the form of wettable powders (WP) or as emulsifiable concentrates (EC), are then applied to the surface of the covering soil as aqueous suspension or emulsion, with the addition of 0.5% of an additive, at an application rate of 600 l of water/ha (converted).
(§3) Following treatment, the pots are placed in a greenhouse and kept under optimum growth conditions for the test plants. The visual grading of the damage to the test plants is carried out after ca. 3 weeks in comparison to untreated controls (herbicidal effect in percent (%): 100% effect=plants have died off, 0% effect=as control plants).

[2] = tested on: Viola tricolor; assay: Herbicidal effect pre-emergence; details: 320 g/ha, visual grading after ca. 3 weeks vs untreated controls
Text: as §1, §2, §3

[3] = tested on: Setaria viridis; assay: Herbicidal effect pre-emergence; details: 320 g/ha, visual grading after ca. 3 weeks vs untreated controls
Text: as §1, §2, §3

[4] = tested on: Amaranthus retroflexus; assay: Herbicidal effect post-emergence; details: 320 g/ha, visual grading after ca. 3 weeks (Table 9)
Text: as §1
(§4) Seeds of mono- and dicotyledonous weed plants and crop plants are sown in wood-fiber pots in sandy loam, covered with soil and grown in a greenhouse under controlled growth conditions. 2 to 3 weeks after sowing, the test plants are sprayed in the single-leaf stage. The compounds according to the invention, formulated in form of wettable powders (WP) or as emulsifiable concentrates (EC), are then sprayed onto the green plant parts as aqueous suspension or emulsion, with the addition of 0.5% of an additive, at an application rate of 600 l of water/ha (converted). After the test plants had been in the greenhouse for ca. 3 weeks under optimum growth conditions, the effect of the preparations is assessed visually in comparison with untreated controls (herbicidal effect in percent (%): 100% effect=plants have died off, 0% effect=as control plants).

[5] = tested on: Viola tricolor; assay: Herbicidal effect post-emergence; details: 320 g/ha, visual grading after ca. 3 weeks (Table 9)
Text: as §1, §4

[6] = tested on: Setaria viridis; assay: Herbicidal effect post-emergence; details: 320 g/ha, visual grading after ca. 3 weeks (Table 9)
Text: as §1, §4

| Compound | herbicidal effect AMARE [1] [%] | herbicidal effect VIOTR [2] [%] | herbicidal effect SETVI [3] [%] | herbicidal effect AMARE [4] [%] | herbicidal effect VIOTR [5] [%] | herbicidal effect SETVI [6] [%] |
| --- | --- | --- | --- | --- | --- | --- |
| CC(=O)OCc1cc2c(N)nsc2c(=O)n1CC1CCCCC1 [Example I-027] | 100 | 90 | 90 | – | – | – |
| CC#Cc1cn(CC2CCCCC2)c(=O)c2snc(N)c12 [Example I-115] | – | – | – | 100 | 100 | 100 |
| CCO/N=C(/C)c1cn(CC2CCCCC2)c(=O)c2snc(N)c12 [Example I-141] | – | – | – | 100 | 100 | 100 |
| O=C(Nc1nsc2c(=O)n(CC3CCCCC3)c(C3CC3)cc12)C(F)(F)C(F)(F)F [Example I-022] | 100 | 100 | 100 | – | – | – |
| CC(C)Cc1cc2c(NC(=O)C(F)(F)F)nsc2c(=O)n1CC1CCCCC1 [Example I-056] | 90 | 100 | 90 | 90 | 90 | 100 |
| N#Cc1cn(CC2CCCCC2)c(=O)c2snc(N)c12 [Example I-135] | 100 | 100 | 100 | 100 | 100 | 90 |
| CCC(=O)Nc1nsc2c(=O)n(CC3CCCCC3Cl)cc(Cl)c12 (racemic) [Example I-173] | 90 | 100 | 100 | – | – | – |
| Nc1nsc2c(=O)n(CC3CCCCC3Cl)cc(Cl)c12 (racemic) [Example I-155] | 80 | 100 | 100 | – | – | – |
| COCc1cc2c(NC(=O)C(F)(F)C(F)(F)F)nsc2c(=O)n1CC1CCCCC1 [Example I-034] | 100 | 100 | 100 | – | – | – |
| COC/C=C/c1cn(CC2CCCCC2)c(=O)c2snc(N)c12 [Example I-108] | – | – | – | 100 | 100 | 100 |
| Nc1nsc2c1C(O)CN(CC1CCCCC1)C2=O (stereo not drawn) [Example I-144] | 100 | 100 | 90 | – | – | – |
| CCCc1cn(CC2CCCCC2)c(=O)c2snc(N)c12 [Example I-126] | – | – | – | 100 | 100 | 80 |
| CC(=O)OCc1cc2c(NC(=O)C(F)(F)C(F)(F)F)nsc2c(=O)n1CC1CCCCC1 [Example I-035] | 100 | 80 | 100 | – | – | – |
| C=Cc1cc2c(N)nsc2c(=O)n1CC1CCCCC1 [Example I-051] | 90 | 100 | 90 | – | – | – |
| Nc1nsc2c(=O)n(CC3CCCCC3)cc(C(=O)O)c12 [Example I-170] | 100 | 90 | 100 | – | – | – |
| CO/N=C(/C)c1cn(CC2CCCCC2)c(=O)c2snc(N)c12 [Example I-134] | – | – | – | 100 | 100 | 80 |
| Cc1ccc(-c2cn(CC3CCCCC3)c(=O)c3snc(N)c23)o1 [Example I-132] | – | – | – | 80 | 90 | 100 |
| O=C(Nc1nsc2c(=O)n(CC3CCCCC3Cl)cc(Cl)c12)C(F)F (racemic) [Example I-159] | 100 | 100 | 100 | – | – | – |
| CC(O)c1cc2c(N)nsc2c(=O)n1CC1CCCCC1 (stereo not drawn) [Example I-072] | – | – | – | 100 | 100 | 80 |
| C=C(OCC)c1cn(CC2CCCCC2)c(=O)c2snc(N)c12 [Example I-133] | 90 | 100 | 90 | – | – | – |
